From US7507727B2, “Substituted quinobenzoxazine analogs and methods of using thereof” (Cylene Pharmaceuticals, Inc., priority 2003, dated 2009) come the findings set out here.

The subject of one data set is HeLa cells. Kind of data set: MTS cell proliferation and/or cytotoxicity assay. In kind it is cell-based, Human. The conditions noted are these: Homo sapiens, HeLa, 72 h, concentration at which 50% of antiproliferative cell response is seen; 3 days incubation; read-out: MTS Data Hella. In a few lines: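 HeLa cells seeded at 4,500 cells/well, exposed to compounds from day 1 for 3 days at 37 °C, 5% CO2. Viability by MTS/PMS (20:1) with 4 h incubation, absorbance at 490 nm. Values are concentrations giving 50% antiproliferative response.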
Consider `CN(C)CCCCNC(=O)c1cn2c3c(c(N4CC[C@@H](NC(=O)CCN5CCCCC5)C4)c(F)cc3c1=O)Oc1cc3c(cc1-2)oc1ccccc13` [compound 507], for which the IC50 was 3300 nM.

`CN(C)CCCCNC(=O)c1cn2c3cc4c(cc3oc3c(NCCCN5CCOCC5)c(F)cc(c1=O)c32)c(=O)c1ccccc14` [compound 519]: the IC50 amounted to 2100 nM.

For `CN(C)CC(C)(C)CNC(=O)c1cn2c3c(c(N4CCC(N)C4)c(F)cc3c1=O)Oc1cc3ccccc3cc1-2` (stereo not shown) [compound 531], the IC50 is 480 nM.

For the molecule `CN1CCCC1CCNC(=O)c1cn2c3cc4oc5cc([N+](=O)[O-])ccc5[nH]c4cc3oc3c(NCCC4CCCN4C)c(F)cc(c1=O)c32` (stereo not shown) [compound 572], the IC50 was 4800 nM.

For `CCN(CC)C1CCN(c2c(F)cc3c(=O)c(C(=O)NCCC4CCCN4C)cn4c3c2Oc2cc3ccccc3cc2-4)C1` (stereo not shown) [compound 105], the IC50 worked out at 2800 nM.

As to `COc1ccc(CCNc2c(F)cc3c(=O)c(C(=O)NCCC4CCCN4C)cn4c3c2Oc2cc3ccccc3cc2-4)cc1OC` (stereo not shown) [compound 310], the IC50 is 2300 nM.

`CC(=O)N[C@@H]1CCC(c2c(F)cc3c(=O)c(C(=O)NCCN4CCCC4)cn4c3c2Oc2cc3c(cc2-4)oc2ccccc23)C1` (stereo partly shown) [compound 370]: the IC50 stood at 3500 nM.

Turning to `CN1CCCC1CCNC(=O)c1cn2c3c(c(NCC4CC(C)(C)N(O)C4(C)C)c(F)cc3c1=O)Oc1cc3ccccc3cc1-2` (stereo not shown) [compound 513], the IC50 amounted to 3100 nM.

`CN(C)/C=N/CCCCNC(=O)c1cn2c3c(c(N4CC[C@@H](N)C4)c(F)cc3c1=O)Oc1cc3ccccc3cc1-2` [compound 503]: the IC50 is 4000 nM.

With `CN(C)C1CCN(c2c(F)cc3c(=O)c(C(=O)NCCC4CCCN4C)cn4c3c2Oc2cc3ccccc3cc2-4)C1` (stereo not shown) [compound 104], the IC50 is 2800 nM.

The same data set, now with this note: Homo sapiens, HeLa, HeLa cells, MTS; read-out: Hela MTS.
`CN1CCCC1CCNC(=O)c1cn2c3c(c(N[C@@H]4CN5CCC4CC5)c(F)cc3c1=O)Oc1cc3ccccc3cc1-2` (stereo partly shown) [compound 1497]: the IC50 came to 390 nM.

Consider `O=C(NCCN1CCCC1)c1cn2c3c(c(N4CC5CCCNC5C4)c(F)cc3c1=O)Oc1cc3ccccc3cc1-2` (stereo not shown) [compound 1635], for which the IC50 came to 300 nM.

Consider `O=C(NCCN1CCCC1)c1cn2c3c(c(SCCc4ccccn4)c(F)cc3c1=O)Oc1cc3ccccc3cc1-2` [compound 1782], for which the IC50 is 2100 nM.

Turning to `CC1(C)CC(NC(=O)c2cn3c4c(c(N5CC6CCCNC6C5)c(F)cc4c2=O)Oc2cc4ccccc4cc2-3)CC(C)(C)N1` (stereo not shown) [compound 1642], the IC50 came to 180 nM.

Consider `CN1CCCC1CCNC(=O)c1cn2c3c(c(N4CCC(c5cnccn5)C4)c(F)cc3c1=O)Oc1cc3ccccc3cc1-2` (stereo not shown) [compound 1512], for which the IC50 was determined as 3100 nM.

For the molecule `O=C(NCCN1CCOCC1)c1cn2c3c(c(N4CC5CCCNC5C4)c(F)cc3c1=O)Oc1cc3ccccc3cc1-2` (stereo not shown) [compound 1640], the IC50 was found to be 30 nM.

As to `CN(C)c1cccc(CNc2c(F)cc3c(=O)c(C(=O)NCCC4CCCN4C)cn4c3c2Oc2cc3ccccc3cc2-4)c1` (stereo not shown) [compound 1688], the IC50 was 250 nM.

Regarding `CN1CCCC1CCNC(=O)c1cn2c3c(c(NCCc4c[nH]cn4)c(F)cc3c1=O)Oc1cc3ccccc3cc1-2` (stereo not shown) [compound 1657], the IC50 turned out to be 500 nM.

Staying with this data set, now noted: concentration at which 50% of antiproliferative cell response is seen; 3 days incubation; read-out: MTS Data Hella.
Turning to `CN1CCCC1CCNC(=O)c1cn2c3c(c(NC[C@H]4CCCO4)c(F)cc3c1=O)Oc1cc3ccccc3cc1-2` (stereo partly shown) [compound 38], the IC50 stood at 260 nM.

The test system of a further data set is Chinese Hamster Ovary Cells (CHO). Kind of data set: In vitro chromosome aberration assay (incl. mitotic index). The class given is cell-based. The conditions noted are these: CHO, positive control high dose (H), 3 hrs.
As to `CO[C@@]12[C@H](COC(N)=O)C3=C(C(=O)C(C)=C(N)C3=O)N1C[C@@H]1N[C@@H]12` [MMC], the “% CA 3 HRS” value is reported as 42.0% and the “FI 3 HRS” value worked out at 14.0.

Staying with this data set, now noted: CHO, positive control low dose (L), 3 hrs.
Turning to `CO[C@@]12[C@H](COC(N)=O)C3=C(C(=O)C(C)=C(N)C3=O)N1C[C@@H]1N[C@@H]12` [MMC], the “% CA 3 HRS” value was 20.3% and the “FI 3 HRS” value is 6.8.

Staying with this data set, now noted: CHO, positive control low dose (L), 20 hrs.
Turning to `CO[C@@]12[C@H](COC(N)=O)C3=C(C(=O)C(C)=C(N)C3=O)N1C[C@@H]1N[C@@H]12` [MMC], the “% CA 20 HRS” value was determined as 26.5% and the “FI 20 HRS” value is listed as 8.8.

Still in this data set, the particulars now being: average mitotic index, positive control low dose (L), 20 hrs.
For the molecule `CO[C@@]12[C@H](COC(N)=O)C3=C(C(=O)C(C)=C(N)C3=O)N1C[C@@H]1N[C@@H]12` [MMC], the “% MI 20 HRS” value was determined as 5%.

The same data set, now with this note: average mitotic index, positive control low dose (L), first column (time not given).
For `CO[C@@]12[C@H](COC(N)=O)C3=C(C(=O)C(C)=C(N)C3=O)N1C[C@@H]1N[C@@H]12` [MMC], the “% MI” value was determined as 6%.

The target in another data set is c-Myc template DNA (c-myc quadruplex). Kind of data set: Quadruplex binding / stop assay (Taq polymerase arrest, capillary electrophoresis). The conditions noted are these: read-out: S DATA; Table 1D, stop assay data.
With `CN1CCCC1CCNC(=O)c1cn2c3c(c(N[C@@H]4CN5CCC4CC5)c(F)cc3c1=O)Oc1cc3ccccc3cc1-2` (stereo partly shown) [compound 1497], the IC50 came to 0.5 µM.

As for `O=C(NCCN1CCCC1)c1cn2c3c(c(N4CC5CCCNC5C4)c(F)cc3c1=O)Oc1cc3ccccc3cc1-2` (stereo not shown) [compound 1635], the IC50 turned out to be 0.18 µM.

In the case of `O=C(NCCN1CCCC1)c1cn2c3c(c(SCCc4ccccn4)c(F)cc3c1=O)Oc1cc3ccccc3cc1-2` [compound 1782], the IC50 was 3.3 µM.

With `CC1(C)CC(NC(=O)c2cn3c4c(c(N5CC6CCCNC6C5)c(F)cc4c2=O)Oc2cc4ccccc4cc2-3)CC(C)(C)N1` (stereo not shown) [compound 1642], the IC50 came out at 0.5 µM.

Take `CN1CCCC1CCNC(=O)c1cn2c3c(c(N4CCC(c5cnccn5)C4)c(F)cc3c1=O)Oc1cc3ccccc3cc1-2` (stereo not shown) [compound 1512]: the IC50 amounted to 0.78 µM.

`O=C(NCCN1CCOCC1)c1cn2c3c(c(N4CC5CCCNC5C4)c(F)cc3c1=O)Oc1cc3ccccc3cc1-2` (stereo not shown) [compound 1640]: the IC50 was 0.25 µM.

With `CN(C)c1cccc(CNc2c(F)cc3c(=O)c(C(=O)NCCC4CCCN4C)cn4c3c2Oc2cc3ccccc3cc2-4)c1` (stereo not shown) [compound 1688], the IC50 turned out to be 0.75 µM.

Take `CN1CCCC1CCNC(=O)c1cn2c3c(c(NCCc4c[nH]cn4)c(F)cc3c1=O)Oc1cc3ccccc3cc1-2` (stereo not shown) [compound 1657]: the IC50 worked out at 0.375 µM.

Still in this data set, the particulars now being: read-out: Stop Data c-Myc μM; concentration at which 50% of the DNA was arrested (arrested:full-length 1:1).
`CN1CCCC1CCNC(=O)c1cn2c3c(c(NC[C@H]4CCCO4)c(F)cc3c1=O)Oc1cc3ccccc3cc1-2` (stereo partly shown) [compound 38]: the IC50 amounted to 2.5 µM.

As for `CN(C)CCCCNC(=O)c1cn2c3c(c(N4CC[C@@H](NC(=O)CCN5CCCCC5)C4)c(F)cc3c1=O)Oc1cc3c(cc1-2)oc1ccccc13` [compound 507], the IC50 is 0.375 µM.

Turning to `CN(C)CCCCNC(=O)c1cn2c3cc4c(cc3oc3c(NCCCN5CCOCC5)c(F)cc(c1=O)c32)c(=O)c1ccccc14` [compound 519], the IC50 stood at 0.375 µM.

Turning to `CN(C)CC(C)(C)CNC(=O)c1cn2c3c(c(N4CCC(N)C4)c(F)cc3c1=O)Oc1cc3ccccc3cc1-2` (stereo not shown) [compound 531], the IC50 worked out at 0.375 µM.

`CN1CCCC1CCNC(=O)c1cn2c3cc4oc5cc([N+](=O)[O-])ccc5[nH]c4cc3oc3c(NCCC4CCCN4C)c(F)cc(c1=O)c32` (stereo not shown) [compound 572]: the IC50 was 0.18 µM.

With `CCN(CC)C1CCN(c2c(F)cc3c(=O)c(C(=O)NCCC4CCCN4C)cn4c3c2Oc2cc3ccccc3cc2-4)C1` (stereo not shown) [compound 105], the IC50 was 1.75 µM.

For the molecule `COc1ccc(CCNc2c(F)cc3c(=O)c(C(=O)NCCC4CCCN4C)cn4c3c2Oc2cc3ccccc3cc2-4)cc1OC` (stereo not shown) [compound 310], the IC50 stood at 1 µM.

`CC(=O)N[C@@H]1CCC(c2c(F)cc3c(=O)c(C(=O)NCCN4CCCC4)cn4c3c2Oc2cc3c(cc2-4)oc2ccccc23)C1` (stereo partly shown) [compound 370]: the IC50 came to 0.75 µM.

Turning to `CN1CCCC1CCNC(=O)c1cn2c3c(c(NCC4CC(C)(C)N(O)C4(C)C)c(F)cc3c1=O)Oc1cc3ccccc3cc1-2` (stereo not shown) [compound 513], the IC50 was found to be 0.375 µM.

As for `CN(C)/C=N/CCCCNC(=O)c1cn2c3c(c(N4CC[C@@H](N)C4)c(F)cc3c1=O)Oc1cc3ccccc3cc1-2` [compound 503], the IC50 amounted to 0.375 µM.

For the molecule `CN(C)C1CCN(c2c(F)cc3c(=O)c(C(=O)NCCC4CCCN4C)cn4c3c2Oc2cc3ccccc3cc2-4)C1` (stereo not shown) [compound 104], the IC50 is 1.75 µM.
